Reference: US8722578B2, “Spiroheterocyclic pyrrolidinedione herbicidal compositions” (Syngenta Participations AG, priority 2008, dated 2014)

Tests used:
Setaria faberi (SETFA) [1] = test: Example B post-emergence herbicidal activity, glasshouse pot test; format: in vivo; settings: 312 h, evaluated after 13 days, read-out: SETFA post-emergence activity (100=total damage to plant; 0=no damage to plant); for pest or weed control at 1000 g/ha: rate 1000 g/ha; for pest or weed control at 250 g/ha: rate 250 g/ha
Protocol: (§1) Seeds of a variety of test species are sown in standard soil in pots. After cultivation for one day (pre-emergence) or after 8 days cultivation (post-emergence) under controlled conditions in a glasshouse (at 24/16° C., day/night; 14 hours light; 65% humidity), the plants are sprayed with an aqueous spray solution derived from the formulation of the technical active ingredient in acetone/water (50:50) solution containing 0.5% Tween 20 (polyoxyethelyene sorbitan monolaurate, CAS RN 9005-64-5). The test plants are then grown in a glasshouse under controlled conditions in a glasshouse (at 24/16° C., day/night; 14 hours light; 65% humidity) and watered twice daily. After 13 days for pre and post-emergence, the test is evaluated (100=total damage to plant; 0=no damage to plant). Test Plants: Setaria faberi (SETFA), Alopecurus myosuroides (ALOMY), Echinochloa crus-galli (ECHCG), Avena fatua (AVEFA)

Avena fatua (AVEFA) [2] = test: as above; format: in vivo; settings: 312 h, evaluated after 13 days, read-out: AVEFA post-emergence activity (100=total damage to plant; 0=no damage to plant); for pest or weed control at 1000 g/ha: rate 1000 g/ha; for pest or weed control at 250 g/ha: rate 250 g/ha
Protocol: as §1

[3] = tested on: Alopecurus myosuroides (ALOMY); test: as above; format: in vivo; settings: 312 h, evaluated after 13 days, read-out: ALOMY post-emergence activity (100=total damage to plant; 0=no damage to plant); for pest or weed control at 1000 g/ha: rate 1000 g/ha; for pest or weed control at 250 g/ha: rate 250 g/ha
Protocol: as §1

[4] = tested on: Echinochloa crus-galli (ECHCG); test: as above; format: in vivo; settings: 312 h, evaluated after 13 days, read-out: ECHCG post-emergence activity (100=total damage to plant; 0=no damage to plant); for pest or weed control at 1000 g/ha: rate 1000 g/ha; for pest or weed control at 250 g/ha: rate 250 g/ha
Protocol: as §1

Setaria faberi (SETFA) [5] = test: Example B pre-emergence herbicidal activity, glasshouse pot test; format: in vivo; settings: 312 h, first table (headed Post-Emergence, taken as pre-emergence), evaluated after 13 days, read-out: SETFA activity (100=total damage to plant; 0=no damage to plant); for pest or weed control at 1000 g/ha: rate 1000 g/ha
Protocol: as §1

Avena fatua (AVEFA) [6] = test: as above; format: in vivo; settings: 312 h, first table (headed Post-Emergence, taken as pre-emergence), evaluated after 13 days, read-out: AVEFA activity (100=total damage to plant; 0=no damage to plant); for pest or weed control at 1000 g/ha: rate 1000 g/ha
Protocol: as §1

[7] = tested on: Alopecurus myosuroides (ALOMY); test: as above; format: in vivo; settings: 312 h, first table (headed Post-Emergence, taken as pre-emergence), evaluated after 13 days, read-out: ALOMY activity (100=total damage to plant; 0=no damage to plant); for pest or weed control at 1000 g/ha: rate 1000 g/ha
Protocol: as §1

[8] = tested on: Echinochloa crus-galli (ECHCG); test: as above; format: in vivo; settings: 312 h, first table (headed Post-Emergence, taken as pre-emergence), evaluated after 13 days, read-out: ECHCG activity (100=total damage to plant; 0=no damage to plant); for pest or weed control at 1000 g/ha: rate 1000 g/ha
Protocol: as §1

Row | melting point [°C] | Structure (SMILES) | pest or weed control at 1000 g/ha (Setaria faberi (SETFA) [1]) [%] | pest or weed control at 1000 g/ha (Avena fatua (AVEFA) [2]) [%] | pest or weed control at 1000 g/ha [3] [%] | pest or weed control at 1000 g/ha [4] [%] | pest or weed control at 1000 g/ha (Setaria faberi (SETFA) [5]) [%] | pest or weed control at 1000 g/ha (Avena fatua (AVEFA) [6]) [%] | pest or weed control at 1000 g/ha [7] [%] | pest or weed control at 1000 g/ha [8] [%] | pest or weed control at 250 g/ha (Setaria faberi (SETFA) [1]) [%] | pest or weed control at 250 g/ha (Avena fatua (AVEFA) [2]) [%] | pest or weed control at 250 g/ha [3] [%] | pest or weed control at 250 g/ha [4] [%] | pest or weed control at 250 g/ha (Setaria faberi (SETFA) [5]; rate 250 g/ha) [%] | pest or weed control at 250 g/ha (Avena fatua (AVEFA) [6]; rate 250 g/ha) [%] | pest or weed control at 250 g/ha ([7]; rate 250 g/ha) [%] | pest or weed control at 250 g/ha ([8]; rate 250 g/ha) [%]
1 | 174 to 175 | CCOC(=O)OC1=C(c2c(C)cc(C)cc2C)C(=O)NC12CCN(OCC)CC2 [Compound P22] | 70 | 60 | 90 | 100 | 90 | 90 | 90 | 100 |  |  |  |  |  |  |  | 
2 |  | CCON1CCC2(CC1)NC(=O)C(c1c(C)cc(C)cc1C)=C2OC(=O)C(C)(C)C [Compound P25, 2,2-dimethyl-propionic acid 8-ethoxy-2-oxo-3-(2,4,6-trimethyl-phenyl)-1,8-diaza-spiro[4.5]dec-3-en-4-yl ester] | 0 | 0 | 50 | 40 | 60 | 0 | 60 | 80 |  |  |  |  |  |  |  | 
3 | 111 to 113 | COc1ccc(COC2=C(c3ccc(Cl)cc3Cl)C(=O)NC23CCN(OC)CC3)cc1 [Compound P32] | 90 | 60 | 70 | 80 |  |  |  |  |  |  |  |  |  |  |  | 
4 | 201 to 203 | CON1CCC2(CC1)NC(=O)C(c1cc(C)ccc1C)=C2OC(=O)C(C)C [Compound P34] | 60 | 0 | 10 | 40 | 20 | 40 | 30 | 20 |  |  |  |  |  |  |  | 
5 | 171 to 172 | CON1CCC2(CC1)NC(=O)C(c1ccc(Cl)cc1Cl)=C2OC(=O)N(C)CCC#N [Compound P39] | 50 | 0 | 10 | 40 | 60 | 0 | 0 | 30 |  |  |  |  |  |  |  | 
6 | 203 to 205 | C=CCOC(=O)OC1=C(c2c(Cl)cccc2Cl)C(=O)NC12CCN(OC)CC2 [Compound P44] | 50 | 0 | 50 | 0 | 30 | 10 | 20 | 30 |  |  |  |  |  |  |  | 
7 | 207 to 211 | C=CCOC(=O)OC1=C(c2c(C)cc(Br)cc2C)C(=O)NC12CCN(OC)CC2 [Compound P48] | 80 | 10 | 80 | 80 | 90 | 80 | 100 | 80 |  |  |  |  |  |  |  | 
8 | 185 to 187 | CCOC(=O)OC1=C(c2c(C)cc(Br)cc2C)C(=O)NC12CCN(OC)CC2 [Compound P49] | 80 | 80 | 90 | 80 | 80 | 80 | 80 | 70 |  |  |  |  |  |  |  | 
9 | 174 to 176 | CCOC(=O)OC1=C(c2cc(C3CC3)c(C)cc2C)C(=O)NC12CCN(OC)CC2 [Compound P55] |  |  |  |  |  |  |  |  | 80 | 60 | 60 | 70 | 60 | 0 | 10 | 40
10 | 218 to 219 | CON1CCC2(CC1)NC(=O)C(c1cc(C3CC3)c(C)cc1C)=C2OC(=O)C(C)(C)C [Compound P56] |  |  |  |  |  |  |  |  | 60 | 40 | 20 | 50 |  |  |  | 
11 | 201 to 203 | CCOC(=O)OC1=C(c2ccc(Br)cc2C)C(=O)NC12CCN(OC)CC2 [Compound P68] |  |  |  |  |  |  |  |  | 90 | 60 | 70 | 90 |  |  |  | 
12 | > 250 | CON1CCC2(CC1)NC(=O)C(c1c(C)cc(-c3ccc(Cl)cc3)cc1C)=C2OC(=O)C(C)(C)C [Compound P71] |  |  |  |  |  |  |  |  | 60 | 20 | 0 | 30 |  |  |  | 
13 |  | CON1CCC2(CC1)NC(=O)C(c1c(C)cc(C)cc1C)C2=O (stereo not shown) [Compound T4] | 100 | 90 | 100 | 100 | 90 | 100 | 90 | 100 |  |  |  |  |  |  |  | 
14 |  | CCON1CCC2(CC1)NC(=O)C(c1c(C)cc(C)cc1C)C2=O (stereo not shown) [Compound T5] | 90 | 60 | 90 | 100 | 90 | 90 | 100 | 100 |  |  |  |  |  |  |  | 
15 | 168 to 169 | CON1CCC2(CC1)NC(=O)C(c1cc(-c3ccc(Cl)cc3)c(C)cc1C)C2=O (stereo not shown) [Compound T15] |  |  |  |  |  |  |  |  | 90 | 60 | 60 | 90 |  |  |  | 
16 |  | CON1CCC2(CC1)NC(=O)C(c1cc(C3CC3)c(C)cc1C)C2=O (stereo not shown) [Compound T16, 3-(5-cyclopropyl-2,4-dimethyl-phenyl)-4-hydroxy-8-methoxy-1,8-diaza-spiro[4.5]dec-3-en-2-one] |  |  |  |  |  |  |  |  | 80 | 30 | 60 | 60 |  |  |  | 
17 | > 200 | CON1CCC2(CC1)NC(=O)C(c1c(C)cc(C)c(Cl)c1C)C2=O (stereo not shown) [Compound T20] |  |  |  |  |  |  |  |  |  |  |  |  |  |  |  | 
18 | 167 to 169 | CON1CCC2(CC1)NC(=O)C(c1ccc(Br)cc1Cl)C2=O (stereo not shown) [Compound T21] |  |  |  |  |  |  |  |  | 80 | 60 | 80 | 90 |  |  |  | 
19 | 187 to 189 | CON1CCC2(CC1)NC(=O)C(c1ccc(Br)cc1C)C2=O (stereo not shown) [Compound T22] |  |  |  |  |  |  |  |  | 80 | 40 | 60 | 80 |  |  |  | 
